≈ marks a conversion by molar mass, not a printed value. Calls of active or inactive are those of the source. No cut-off for these calls is given here.
Assays:
[1] = Antimicrobial activity against aspergillus sp and Candida albicans; Inactive; type: functional
Bacteria [2] = test: Antimicrobial activity against gram positive and gram negative bacteria; Active; type: functional, organism-based
Bacillus subtilis [3] = test: Minimum inhibitory concentration against Bacillus subtilis; type: functional
Escherichia coli = test: Minimum inhibitory concentration against Escherichia coli.; type: functional
Pseudomonas aeruginosa = test: Minimum inhibitory concentration against Pseudomonas aeruginosa; type: functional
Staphylococcus aureus [4] = test: Minimum inhibitory concentration against Staphylococcus aureus; type: functional
Kocuria rosea = test: Minimum inhibitory concentration against Micrococcus roseus; type: functional
Bacteria [5] = test: Compound tested for in vitro antimicrobial activity against gram positive and gram negative bacteria; Active; type: functional, organism-based
Staphylococcus aureus [6] = test: Compound was evaluated for minimum inhibitory concentration against Staphylococcus aureus; type: functional
Bacteria [7] = test: Antimicrobial activity against gram positive and gram negative bacteria; Inactive; type: functional, organism-based
Bacillus subtilis [8] = test: Compound was evaluated for minimum inhibitory concentration against Bacillus subtilis;Zero growth inhibition; type: functional, organism-based
Staphylococcus aureus [9] = test: Compound was evaluated for minimum inhibitory concentration against Staphylococcus aureus;Zero growth inhibition; type: functional, organism-based

Structure (SMILES)	Activity [1]	Activity (Bacteria [2])	MIC (Bacillus subtilis [3])	MIC (Escherichia coli)	MIC (Pseudomonas aeruginosa)	MIC (Staphylococcus aureus [4])	MIC (Kocuria rosea)	Activity (Bacteria [5])	Inhibition (Staphylococcus aureus [6])	Activity (Bacteria [7])	MIC (Bacillus subtilis [8])	MIC (Staphylococcus aureus [9])
CC(C)[C@H](C(=O)O)N1Cc2ccccc2C1=O	inactive	Active	1620 µg/mL (≈ 6.94 mM)	3600 µg/mL (≈ 15.4 mM)	3600 µg/mL (≈ 15.4 mM)	3600 µg/mL (≈ 15.4 mM)	1620 µg/mL (≈ 6.94 mM)	–	–	–	–	–
C[C@H](C(=O)O)N1Cc2ccccc2C1=O	inactive	–	328 µg/mL (≈ 1.6 mM)	3600 µg/mL (≈ 17.5 mM)	3600 µg/mL (≈ 17.5 mM)	1620 µg/mL (≈ 7.89 mM)	2610 µg/mL (≈ 12.7 mM)	Active	–	–	–	–
O=C(O)C[C@@H](C(=O)O)N1Cc2ccccc2C1=O	inactive	Active	147 µg/mL (≈ 0.59 mM)	729 µg/mL (≈ 2.93 mM)	1620 µg/mL (≈ 6.5 mM)	3600 µg/mL (≈ 14.4 mM)	2610 µg/mL (≈ 10.5 mM)	–	–	–	–	–
O=C(O)[C@H](Cc1ccccc1)N1Cc2ccccc2C1=O	inactive	Active	1180 µg/mL (≈ 4.18 mM)	3600 µg/mL (≈ 12.8 mM)	3600 µg/mL (≈ 12.8 mM)	–	2610 µg/mL (≈ 9.28 mM)	–	0%	–	–	–
O=C(O)[C@H](CO)N1Cc2ccccc2C1=O	inactive	Active	729 µg/mL (≈ 3.3 mM)	1620 µg/mL (≈ 7.32 mM)	3600 µg/mL (≈ 16.3 mM)	3600 µg/mL (≈ 16.3 mM)	2610 µg/mL (≈ 11.8 mM)	–	–	–	–	–
CC(c1ccccc1)N1Cc2ccccc2C1=O (stereo not drawn)	inactive	–	–	–	–	–	–	–	–	inactive	–	–
O=C1c2ccccc2C(O)N1Cc1ccccc1 (stereo not drawn)	inactive	Active	–	2610 µg/mL (≈ 10.9 mM)	3600 µg/mL (≈ 15 mM)	–	1620 µg/mL (≈ 6.77 mM)	–	–	–	Zero growth inhibition	Zero growth inhibition
COc1ccc(N2Cc3ccccc3C2=O)cc1	inactive	–	–	–	–	–	–	–	–	inactive	–	–
CC(C)C1COC2c3ccccc3C(=O)N21 (stereo not drawn)	–	–	–	–	–	–	–	–	–	inactive	–	–
C[C@@H](C(=O)O)N1Cc2ccccc2C1=O	inactive	–	729 µg/mL (≈ 3.55 mM)	1620 µg/mL (≈ 7.89 mM)	3600 µg/mL (≈ 17.5 mM)	1620 µg/mL (≈ 7.89 mM)	1620 µg/mL (≈ 7.89 mM)	Active	–	–	–	–
O=C1c2ccccc2C2OCC(Cc3ccccc3)N12 (stereo not drawn)	inactive	–	–	–	–	–	–	–	–	inactive	–	–
CC(C)CC(C(=O)O)N1Cc2ccccc2C1=O (stereo not drawn)	inactive	Active	729 µg/mL (≈ 2.95 mM)	3600 µg/mL (≈ 14.6 mM)	3600 µg/mL (≈ 14.6 mM)	3600 µg/mL (≈ 14.6 mM)	3600 µg/mL (≈ 14.6 mM)	–	–	–	–	–
O=C1c2ccccc2C2OCC(c3ccccc3)N12 (stereo not drawn)	inactive	–	–	–	–	–	–	–	–	inactive	–	–
CC(C)[C@@H](C(=O)O)N1Cc2ccccc2C1=O	inactive	Active	1620 µg/mL (≈ 6.94 mM)	1620 µg/mL (≈ 6.94 mM)	3600 µg/mL (≈ 15.4 mM)	3600 µg/mL (≈ 15.4 mM)	1620 µg/mL (≈ 6.94 mM)	–	–	–	–	–
O=C(O)[C@H](c1ccccc1)N1Cc2ccccc2C1=O	inactive	Active	529 µg/mL (≈ 1.98 mM)	1620 µg/mL (≈ 6.06 mM)	3600 µg/mL (≈ 13.5 mM)	–	729 µg/mL (≈ 2.73 mM)	–	0%	–	–	–
CCC(C)C(C(=O)O)N1Cc2ccccc2C1=O (stereo not drawn)	inactive	Active	729 µg/mL (≈ 2.95 mM)	1620 µg/mL (≈ 6.55 mM)	3600 µg/mL (≈ 14.6 mM)	3600 µg/mL (≈ 14.6 mM)	1180 µg/mL (≈ 4.75 mM)	–	–	–	–	–
Cc1ccc(N2Cc3ccccc3C2=O)cc1	inactive	–	–	–	–	–	–	–	–	inactive	–	–

Reference: ChEMBL document CHEMBL1133243, “Synthesis and antimicrobial activity of some isoindolin-1-ones derivatives” (2000)
